{
  "source": "the supplement of paper PMC10307832",
  "assay_in_all_cases": "relative viability (nuclei count vs DMSO), 5 days (fraction); higher = more cells survive",
  "key": {"[1]": {"compound": "CC1=C(C(=NN1)C)CC2=C(C3=C(S2)N(C(=O)N(C3=O)C)CC(C)C)C(=O)N4C[C@@H](CO4)O + CC1(C)CCC(c2ccc(Cl)cc2)=C(CN2CCN(c3ccc(C(=O)NS(=O)(=O)c4ccc(N[C@H](CCN5CCOCC5)CSc5ccccc5)c(S(=O)(=O)C(F)(F)F)c4)cc3)CC2)C1 [Navitoclax] (partner 0.5 µM)", "how_it_was_run": "(§1)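 Relative viability was taken as the ratio of nuclei in treated wells to nuclei in vehicle wells. Lung cancer cell lines in 1536-well plates received compounds by pin tool one day after seeding, either one drug alone or a fixed anchor-drug dose plus five library-drug doses (not always all listed) in √10 steps. Nuclei were counted on 4× images after 5 days of treatment, and values are medians of duplicate plates.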"}, "[2]": {"compound": "CC1=C(C(=NN1)C)CC2=C(C3=C(S2)N(C(=O)N(C3=O)C)CC(C)C)C(=O)N4C[C@@H](CO4)O + COc1cccc2cc(-c3nc([C@H]4CC[C@H](C(=O)O)CC4)n4ncnc(N)c34)[nH]c12 [OSI-027] (partner 0.5 µM)", "how_it_was_run": "as §1"}, "IDH-C35 + Navitoclax": {"compound": "Cc1ccccc1C(C(=O)NC1CCCCC1)N(C(=O)Cn1ccnc1C)c1cccc(F)c1 [IDH-C35] + CC1(C)CCC(c2ccc(Cl)cc2)=C(CN2CCN(c3ccc(C(=O)NS(=O)(=O)c4ccc(N[C@H](CCN5CCOCC5)CSc5ccccc5)c(S(=O)(=O)C(F)(F)F)c4)cc3)CC2)C1 [Navitoclax] (partner 0.5 µM)", "how_it_was_run": "as §1"}, "IDH-C35 + Lapatinib": {"compound": "Cc1ccccc1C(C(=O)NC1CCCCC1)N(C(=O)Cn1ccnc1C)c1cccc(F)c1 [IDH-C35] + CS(=O)(=O)CCNCc1ccc(-c2ccc3ncnc(Nc4ccc(OCc5cccc(F)c5)c(Cl)c4)c3c2)o1 [Lapatinib] (partner 2 µM)", "how_it_was_run": "as §1"}},
  "data": [
    {"cell line": "UMC-11", "values": [
      {"measurement": "relative viability", "setting": "[1]; first compound 0.0025 µM", "value": 0.31},
      {"measurement": "relative viability", "setting": "[1]; first compound 0.007906 µM", "value": 0.215},
      {"measurement": "relative viability", "setting": "[1]; first compound 0.025 µM", "value": 0.233},
      {"measurement": "relative viability", "setting": "[1]; first compound 0.07906 µM", "value": 0.211},
      {"measurement": "relative viability", "setting": "[1]; first compound 0.25 µM", "value": 0.199},
      {"measurement": "relative viability", "setting": "[2]; first compound 0.0025 µM", "value": 0.494},
      {"measurement": "relative viability", "setting": "[2]; first compound 0.007906 µM", "value": 0.473},
      {"measurement": "relative viability", "setting": "[2]; first compound 0.025 µM", "value": 0.468},
      {"measurement": "relative viability", "setting": "[2]; first compound 0.07906 µM", "value": 0.549},
      {"measurement": "relative viability", "setting": "[2]; first compound 0.25 µM", "value": 0.572},
      {"measurement": "relative viability", "setting": "IDH-C35 + Navitoclax; first compound 0.08 µM", "value": 0.298},
      {"measurement": "relative viability", "setting": "IDH-C35 + Navitoclax; first compound 0.253 µM", "value": 0.347},
      {"measurement": "relative viability", "setting": "IDH-C35 + Navitoclax; first compound 0.8 µM", "value": 0.323},
      {"measurement": "relative viability", "setting": "IDH-C35 + Navitoclax; first compound 2.53 µM", "value": 0.32},
      {"measurement": "relative viability", "setting": "IDH-C35 + Navitoclax; first compound 8 µM", "value": 0.344},
      {"measurement": "relative viability", "setting": "IDH-C35 + Lapatinib; first compound 0.08 µM", "value": 1.01},
      {"measurement": "relative viability", "setting": "IDH-C35 + Lapatinib; first compound 0.253 µM", "value": 0.976},
      {"measurement": "relative viability", "setting": "IDH-C35 + Lapatinib; first compound 0.8 µM", "value": 0.98},
      {"measurement": "relative viability", "setting": "IDH-C35 + Lapatinib; first compound 2.53 µM", "value": 0.96},
      {"measurement": "relative viability", "setting": "IDH-C35 + Lapatinib; first compound 8 µM", "value": 1.09}
    ]}
  ]
}
